This is an account of results in BindingDB's records for doi:10.1021/acs.jmedchem.2c01521 (Merck, 2023).

Usually Ki stands for the equilibrium dissociation constant of an inhibitor or competing ligand from its target. Higher therefore signals lower affinity.

For this assay, the target named is cAMP and cAMP-inhibited cGMP 3',5'-cyclic phosphodiesterase 10A (Homo sapiens, UniProt Q9Y233). Nature of the assay: Inhibition of human PDE10A2 transfected in human AD293 cells cytosolic fraction using cAMP as substrate by fluorescence polarization assay. (In general: In fluorescence polarisation assays a small probe gives low polarisation when free and higher when bound to something large.)
cAMP and cAMP-inhibited cGMP 3',5'-cyclic phosphodiesterase 10A, sequence (Q9Y233 whole entry): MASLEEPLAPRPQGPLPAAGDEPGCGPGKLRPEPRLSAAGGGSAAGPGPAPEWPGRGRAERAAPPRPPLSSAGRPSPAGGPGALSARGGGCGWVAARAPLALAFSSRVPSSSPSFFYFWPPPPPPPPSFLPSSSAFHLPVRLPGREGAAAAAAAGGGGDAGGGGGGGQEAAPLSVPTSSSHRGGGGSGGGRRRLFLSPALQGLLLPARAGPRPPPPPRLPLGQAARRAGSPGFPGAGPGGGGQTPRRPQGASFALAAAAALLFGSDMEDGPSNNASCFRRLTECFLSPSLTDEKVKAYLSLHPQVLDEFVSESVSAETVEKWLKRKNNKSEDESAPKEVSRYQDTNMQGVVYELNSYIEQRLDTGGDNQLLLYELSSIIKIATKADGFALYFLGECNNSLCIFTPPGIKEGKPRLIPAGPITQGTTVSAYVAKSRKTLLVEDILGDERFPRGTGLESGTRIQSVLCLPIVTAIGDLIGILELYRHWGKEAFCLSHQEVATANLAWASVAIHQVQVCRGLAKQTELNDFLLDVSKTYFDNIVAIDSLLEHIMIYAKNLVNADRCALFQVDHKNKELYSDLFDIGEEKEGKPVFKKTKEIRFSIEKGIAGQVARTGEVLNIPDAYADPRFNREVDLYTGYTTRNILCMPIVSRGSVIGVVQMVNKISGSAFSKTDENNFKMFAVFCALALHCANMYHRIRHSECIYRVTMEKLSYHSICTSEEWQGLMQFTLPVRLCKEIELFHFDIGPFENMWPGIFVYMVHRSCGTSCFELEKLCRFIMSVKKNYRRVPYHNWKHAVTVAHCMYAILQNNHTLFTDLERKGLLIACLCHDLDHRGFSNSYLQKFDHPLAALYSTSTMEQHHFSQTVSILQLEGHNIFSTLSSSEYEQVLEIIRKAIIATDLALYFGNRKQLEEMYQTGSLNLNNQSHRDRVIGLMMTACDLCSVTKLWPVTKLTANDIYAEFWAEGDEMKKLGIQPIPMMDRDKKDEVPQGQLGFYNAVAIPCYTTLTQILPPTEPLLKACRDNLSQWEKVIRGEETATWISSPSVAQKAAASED

Consider `Cc1cnc(OC[C@H]2C[C@@H]2c2ccccn2)cc1NCc1cnn(C)c1`, for which affinity was put at a Ki of 7.8 nM.
